Source: the kinase profiling compilation of Christmann-Franck et al. (2016)
Blank lines part the entries; values can stand above or below the compound they belong to.

Columns and labels:
Assay in all cases: radiometric filter-binding kinase assay, Kinase HotSpot
Conditions in all cases: compound 0.5 µM; ATP 10 µM
SIK2 (human) = SIK2 (human) (UniProt Q9H0K1)
STK17A (human) = STK17A (human) (UniProt Q9UEE5)
IKBKE (human) = IKBKE (human) (UniProt Q14164)
MAP3K2 (human) = MAP3K2 (human) (UniProt Q9Y2U5)
MATK (human) = MATK (human) (UniProt P42679)
CDK4 CCND3 (human) = CDK4 CCND3 (human) (UniProt P30281+P11802)
Sequence of CDK4 CCND3 (human) (P11802 whole entry, looked up): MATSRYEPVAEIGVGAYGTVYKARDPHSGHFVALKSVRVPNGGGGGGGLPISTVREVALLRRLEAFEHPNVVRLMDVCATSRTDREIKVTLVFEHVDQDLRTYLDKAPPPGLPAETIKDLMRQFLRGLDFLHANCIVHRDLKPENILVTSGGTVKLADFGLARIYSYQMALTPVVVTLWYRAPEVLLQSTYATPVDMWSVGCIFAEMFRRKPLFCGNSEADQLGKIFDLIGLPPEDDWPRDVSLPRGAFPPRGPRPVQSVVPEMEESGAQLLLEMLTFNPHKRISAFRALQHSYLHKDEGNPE
Sequence of CDK4 CCND3 (human) (P30281 whole entry, looked up): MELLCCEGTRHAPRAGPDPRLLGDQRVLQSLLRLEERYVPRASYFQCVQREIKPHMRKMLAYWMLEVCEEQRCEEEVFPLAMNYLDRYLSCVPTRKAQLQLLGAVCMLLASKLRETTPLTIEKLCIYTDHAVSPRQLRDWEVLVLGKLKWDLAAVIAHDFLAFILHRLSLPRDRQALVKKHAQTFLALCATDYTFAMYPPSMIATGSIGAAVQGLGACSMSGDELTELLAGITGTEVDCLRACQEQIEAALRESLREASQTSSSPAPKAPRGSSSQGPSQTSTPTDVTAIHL

VRK1 (human) = VRK1 (human) (UniProt Q99986)
RPS6KB1 (human) = RPS6KB1 (human) (UniProt P23443)
[1] = target: TYK2 JH1 catalytic (human) (UniProt P29597)
MARK2 (human) = MARK2 (human) (UniProt Q7KZI7)
CDC42BPA (human) = CDC42BPA (human) (UniProt Q5VT25)
PRKCH (human) = PRKCH (human) (UniProt P24723)
BRSK2 (human) = BRSK2 (human) (UniProt Q8IWQ3)
Sequence of BRSK2 (human) (Q8IWQ3 whole entry, looked up): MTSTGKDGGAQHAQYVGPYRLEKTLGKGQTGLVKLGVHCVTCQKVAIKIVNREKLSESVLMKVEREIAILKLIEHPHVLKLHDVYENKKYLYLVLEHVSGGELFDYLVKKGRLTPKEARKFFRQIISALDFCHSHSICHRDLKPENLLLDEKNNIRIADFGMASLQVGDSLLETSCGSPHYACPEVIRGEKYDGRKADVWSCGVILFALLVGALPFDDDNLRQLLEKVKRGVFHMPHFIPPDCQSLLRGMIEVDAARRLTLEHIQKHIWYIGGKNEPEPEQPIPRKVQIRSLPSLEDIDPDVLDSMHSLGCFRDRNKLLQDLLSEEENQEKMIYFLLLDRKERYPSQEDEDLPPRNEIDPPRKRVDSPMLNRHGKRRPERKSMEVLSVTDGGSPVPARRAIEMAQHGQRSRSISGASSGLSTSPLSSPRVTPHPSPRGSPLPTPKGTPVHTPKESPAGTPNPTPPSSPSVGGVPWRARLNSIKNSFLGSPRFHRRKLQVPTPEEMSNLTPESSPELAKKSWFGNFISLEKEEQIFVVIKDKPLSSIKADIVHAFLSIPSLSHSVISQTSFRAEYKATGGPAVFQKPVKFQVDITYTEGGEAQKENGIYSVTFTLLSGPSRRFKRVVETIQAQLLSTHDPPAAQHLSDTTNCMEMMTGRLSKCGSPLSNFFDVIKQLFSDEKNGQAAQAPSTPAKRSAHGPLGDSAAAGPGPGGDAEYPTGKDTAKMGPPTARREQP

MAPKAPK2 (human) = MAPKAPK2 (human) (UniProt P49137)
RPS6KA1 KD1 KD2 (human) = RPS6KA1 KD1 KD2 (human) (UniProt Q15418)
CDK2 CCNA2 (human) = CDK2 CCNA2 (human) (UniProt P24941+P20248)
MAP2K1 (human) = MAP2K1 (human) (UniProt Q02750)
NEK2 (human) = NEK2 (human) (UniProt P51955)
PHKG2 (human) = PHKG2 (human) (UniProt P15735)
CAMKK1 (human) = CAMKK1 (human) (UniProt Q8N5S9)
WNK2 (human) = WNK2 (human) (UniProt Q9Y3S1)
PRKD2 (human) = PRKD2 (human) (UniProt Q9BZL6)
ABL2 (human) = ABL2 (human) (UniProt P42684)
CDK4 CCND1 (human) = CDK4 CCND1 (human) (UniProt P24385+P11802)
Sequence of CDK4 CCND1 (human) (P11802 whole entry, looked up): as the sequence (P11802 whole entry, looked up) above
Sequence of CDK4 CCND1 (human) (P24385 whole entry, looked up): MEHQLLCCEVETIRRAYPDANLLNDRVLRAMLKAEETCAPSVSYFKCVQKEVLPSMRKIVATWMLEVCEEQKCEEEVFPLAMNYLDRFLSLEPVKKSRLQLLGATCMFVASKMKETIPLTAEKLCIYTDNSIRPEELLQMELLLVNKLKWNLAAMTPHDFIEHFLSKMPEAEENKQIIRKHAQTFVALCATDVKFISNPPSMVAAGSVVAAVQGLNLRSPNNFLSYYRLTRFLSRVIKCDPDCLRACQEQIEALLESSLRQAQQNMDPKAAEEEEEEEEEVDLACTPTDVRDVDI

PAK2 (human) = PAK2 (human) (UniProt Q13177)
AURKA (human) = AURKA (human) (UniProt O14965)
PRKCE (human) = PRKCE (human) (UniProt Q02156)
ROCK1 (human) = ROCK1 (human) (UniProt Q13464)
STK3 (human) = STK3 (human) (UniProt Q13188)
MELK (human) = MELK (human) (UniProt Q14680)
NTRK3 (human) = NTRK3 (human) (UniProt Q16288)
DDR2 (human) = DDR2 (human) (UniProt Q16832)
CAMKK2 (human) = CAMKK2 (human) (UniProt Q96RR4)
MKNK2 (human) = MKNK2 (human) (UniProt Q9HBH9)
YES1 (human) = YES1 (human) (UniProt P07947)
Sequence of YES1 (human) (P07947 whole entry, looked up): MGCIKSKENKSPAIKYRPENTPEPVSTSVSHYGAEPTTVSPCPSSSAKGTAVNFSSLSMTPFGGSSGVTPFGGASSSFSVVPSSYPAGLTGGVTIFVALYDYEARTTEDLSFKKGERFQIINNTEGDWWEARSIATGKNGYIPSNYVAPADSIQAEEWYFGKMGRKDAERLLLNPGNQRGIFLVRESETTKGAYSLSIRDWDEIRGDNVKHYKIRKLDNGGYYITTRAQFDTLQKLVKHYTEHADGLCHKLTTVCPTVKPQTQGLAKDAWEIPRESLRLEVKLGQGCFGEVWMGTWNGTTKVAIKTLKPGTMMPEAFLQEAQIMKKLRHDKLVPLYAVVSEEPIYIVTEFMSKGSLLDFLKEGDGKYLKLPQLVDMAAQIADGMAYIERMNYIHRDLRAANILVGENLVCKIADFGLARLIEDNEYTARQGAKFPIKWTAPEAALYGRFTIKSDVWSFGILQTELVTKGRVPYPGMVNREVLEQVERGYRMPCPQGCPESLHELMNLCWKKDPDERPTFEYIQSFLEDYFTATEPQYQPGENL

MARK1 (human) = MARK1 (human) (UniProt Q9P0L2)
MAP3K7 TAB1 (human) = MAP3K7 TAB1 (human) (UniProt O43318+Q15750)
Sequence of MAP3K7 TAB1 (human) (O43318 whole entry, looked up): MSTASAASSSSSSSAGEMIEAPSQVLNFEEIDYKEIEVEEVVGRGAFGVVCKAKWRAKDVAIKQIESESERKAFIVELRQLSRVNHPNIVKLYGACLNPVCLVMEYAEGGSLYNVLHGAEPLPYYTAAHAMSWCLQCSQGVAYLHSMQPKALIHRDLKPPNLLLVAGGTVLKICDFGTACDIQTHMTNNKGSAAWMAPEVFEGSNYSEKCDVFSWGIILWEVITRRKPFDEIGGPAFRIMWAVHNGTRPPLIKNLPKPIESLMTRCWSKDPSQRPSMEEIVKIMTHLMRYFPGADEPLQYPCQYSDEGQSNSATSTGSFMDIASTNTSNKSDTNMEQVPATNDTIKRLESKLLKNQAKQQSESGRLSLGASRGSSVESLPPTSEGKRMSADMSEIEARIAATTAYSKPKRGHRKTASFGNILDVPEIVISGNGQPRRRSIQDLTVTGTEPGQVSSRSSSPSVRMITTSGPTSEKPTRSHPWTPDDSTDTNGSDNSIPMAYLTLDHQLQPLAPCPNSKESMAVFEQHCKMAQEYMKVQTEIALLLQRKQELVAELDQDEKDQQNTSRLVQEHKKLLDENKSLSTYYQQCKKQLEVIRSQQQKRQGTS
Sequence of MAP3K7 TAB1 (human) (Q15750 whole entry, looked up): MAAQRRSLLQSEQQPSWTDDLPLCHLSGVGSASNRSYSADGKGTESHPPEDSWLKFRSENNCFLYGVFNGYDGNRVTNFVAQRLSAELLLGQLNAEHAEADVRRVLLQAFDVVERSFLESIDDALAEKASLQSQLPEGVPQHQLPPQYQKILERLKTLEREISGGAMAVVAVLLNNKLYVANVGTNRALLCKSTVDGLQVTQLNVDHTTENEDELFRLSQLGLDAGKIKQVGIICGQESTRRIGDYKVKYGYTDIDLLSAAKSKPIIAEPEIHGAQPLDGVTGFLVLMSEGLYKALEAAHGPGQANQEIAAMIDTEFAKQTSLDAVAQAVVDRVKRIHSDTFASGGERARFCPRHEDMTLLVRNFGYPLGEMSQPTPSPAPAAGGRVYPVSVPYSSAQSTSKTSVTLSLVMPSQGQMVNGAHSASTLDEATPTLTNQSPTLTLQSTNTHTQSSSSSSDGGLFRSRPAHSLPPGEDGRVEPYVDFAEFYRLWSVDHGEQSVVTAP

IKBKB (human) = IKBKB (human) (UniProt O14920)
PAK7 (human) = PAK7 (human) (UniProt Q9P286)
Sequence of PAK7 (human) (Q9P286 whole entry, looked up): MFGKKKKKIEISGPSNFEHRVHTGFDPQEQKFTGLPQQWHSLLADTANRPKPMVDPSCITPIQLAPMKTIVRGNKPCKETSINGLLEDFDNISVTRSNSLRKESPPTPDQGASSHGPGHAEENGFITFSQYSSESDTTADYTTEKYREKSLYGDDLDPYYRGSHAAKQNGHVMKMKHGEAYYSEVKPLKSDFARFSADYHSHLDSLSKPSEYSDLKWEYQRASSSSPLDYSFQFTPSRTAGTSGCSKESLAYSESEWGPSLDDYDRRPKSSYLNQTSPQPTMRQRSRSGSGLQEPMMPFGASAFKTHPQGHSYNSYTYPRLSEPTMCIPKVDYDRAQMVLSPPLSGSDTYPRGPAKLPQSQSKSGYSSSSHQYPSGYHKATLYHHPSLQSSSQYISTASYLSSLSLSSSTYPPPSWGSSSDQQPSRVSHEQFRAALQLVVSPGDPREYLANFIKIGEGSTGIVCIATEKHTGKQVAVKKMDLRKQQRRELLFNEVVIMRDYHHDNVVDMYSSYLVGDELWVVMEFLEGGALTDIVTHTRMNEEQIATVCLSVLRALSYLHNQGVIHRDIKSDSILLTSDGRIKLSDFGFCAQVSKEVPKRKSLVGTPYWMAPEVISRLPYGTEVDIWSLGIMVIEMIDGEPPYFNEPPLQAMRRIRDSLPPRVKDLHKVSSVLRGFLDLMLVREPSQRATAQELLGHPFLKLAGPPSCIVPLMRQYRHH

AKT1 (human) = AKT1 (human) (UniProt P31749)
PAK4 (human) = PAK4 (human) (UniProt O96013)

Sequence of IKBKE (human) (Q14164 whole entry, looked up): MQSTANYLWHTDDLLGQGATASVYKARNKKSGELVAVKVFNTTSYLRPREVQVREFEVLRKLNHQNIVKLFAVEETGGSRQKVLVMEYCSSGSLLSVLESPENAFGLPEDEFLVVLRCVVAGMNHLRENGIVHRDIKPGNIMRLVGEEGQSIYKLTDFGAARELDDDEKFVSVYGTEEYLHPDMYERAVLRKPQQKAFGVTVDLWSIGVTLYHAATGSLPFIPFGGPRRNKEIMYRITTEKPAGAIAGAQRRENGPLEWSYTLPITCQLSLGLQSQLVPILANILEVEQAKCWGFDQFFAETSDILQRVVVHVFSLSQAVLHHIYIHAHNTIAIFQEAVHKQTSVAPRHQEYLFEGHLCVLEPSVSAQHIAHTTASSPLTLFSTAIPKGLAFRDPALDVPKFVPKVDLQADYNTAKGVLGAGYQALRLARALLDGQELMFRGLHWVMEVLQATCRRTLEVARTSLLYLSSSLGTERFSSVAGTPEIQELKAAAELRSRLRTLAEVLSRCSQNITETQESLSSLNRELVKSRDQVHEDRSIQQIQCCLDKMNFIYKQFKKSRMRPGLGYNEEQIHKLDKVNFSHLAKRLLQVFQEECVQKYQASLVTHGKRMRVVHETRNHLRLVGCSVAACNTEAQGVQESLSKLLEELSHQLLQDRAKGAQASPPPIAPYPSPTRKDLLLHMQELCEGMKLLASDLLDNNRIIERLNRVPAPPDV

residual activity (SIK2 (human)): 75.1%
residual activity (STK17A (human)): 22.5%
residual activity (IKBKE (human)): 45.7%
residual activity (MAP3K2 (human)): 60.6%
residual activity (MATK (human)): 101%
residual activity (CDK4 CCND3 (human)): 66.1%
residual activity (VRK1 (human)): 88.3%
residual activity (RPS6KB1 (human)): 47.8%
residual activity [1]: 9.42%
residual activity (MARK2 (human)): 57.4%
residual activity (CDC42BPA (human)): 88.6%
residual activity (PRKCH (human)): 82.2%
residual activity (BRSK2 (human)): 33.3%
residual activity (MAPKAPK2 (human)): 98.4%
residual activity (RPS6KA1 KD1 KD2 (human)): 8.85%
residual activity (CDK2 CCNA2 (human)): 15.5%
residual activity (MAP2K1 (human)): 99.7%
residual activity (NEK2 (human)): 114%
residual activity (PHKG2 (human)): 34.9%
residual activity (CAMKK1 (human)): 26.2%
residual activity (WNK2 (human)): 85.4%
residual activity (PRKD2 (human)): 74.3%
residual activity (ABL2 (human)): 38.5%
residual activity (CDK4 CCND1 (human)): 96.4%
residual activity (PAK2 (human)): 82.1%
residual activity (AURKA (human)): 9.78%
residual activity (PRKCE (human)): 92.2%
residual activity (ROCK1 (human)): 101%
residual activity (STK3 (human)): 4.81%
residual activity (MELK (human)): 13.1%
residual activity (NTRK3 (human)): 1.01%
residual activity (DDR2 (human)): 86.1%
residual activity (CAMKK2 (human)): 26%
residual activity (MKNK2 (human)): 72.4%
residual activity (YES1 (human)): 13.4%
residual activity (MARK1 (human)): 60.5%
residual activity (MAP3K7 TAB1 (human)): 50.5%
residual activity (IKBKB (human)): 90.5%
residual activity (PAK7 (human)): 81%
residual activity (AKT1 (human)): 95.6%
residual activity (PAK4 (human)): 84.5%
SMILES: O=C1Nc2ccccc2/C1=C1/Nc2ccccc2/C1=N\OCCC(O)CO (centres undefined)

SMILES: Nc1nccc(-c2c(-c3ccc(F)cc3)ncn2C2CCNCC2)n1
residual activity (SIK2 (human)): 64.7%
residual activity (STK17A (human)): 97.8%
residual activity (IKBKE (human)): 99.5%
residual activity (MAP3K2 (human)): 94%
residual activity (MATK (human)): 99.5%
residual activity (CDK4 CCND3 (human)): 104%
residual activity (VRK1 (human)): 83.4%
residual activity (RPS6KB1 (human)): 98.2%
residual activity [1]: 99.8%
residual activity (MARK2 (human)): 97%
residual activity (CDC42BPA (human)): 101%
residual activity (PRKCH (human)): 91.9%
residual activity (BRSK2 (human)): 96.6%
residual activity (MAPKAPK2 (human)): 97.6%
residual activity (RPS6KA1 KD1 KD2 (human)): 96.7%
residual activity (CDK2 CCNA2 (human)): 100%
residual activity (MAP2K1 (human)): 98.2%
residual activity (NEK2 (human)): 103%
residual activity (PHKG2 (human)): 104%
residual activity (CAMKK1 (human)): 103%
residual activity (WNK2 (human)): 93.1%
residual activity (PRKD2 (human)): 50.4%
residual activity (ABL2 (human)): 95.1%
residual activity (CDK4 CCND1 (human)): 99.9%
residual activity (PAK2 (human)): 76.9%
residual activity (AURKA (human)): 100%
residual activity (PRKCE (human)): 105%
residual activity (ROCK1 (human)): 103%
residual activity (STK3 (human)): 103%
residual activity (MELK (human)): 100%
residual activity (NTRK3 (human)): 97.1%
residual activity (DDR2 (human)): 107%
residual activity (CAMKK2 (human)): 110%
residual activity (MKNK2 (human)): 92.1%
residual activity (YES1 (human)): 85.3%
residual activity (MARK1 (human)): 97.9%
residual activity (MAP3K7 TAB1 (human)): 96.9%
residual activity (IKBKB (human)): 104%
residual activity (PAK7 (human)): 101%
residual activity (AKT1 (human)): 99.9%
residual activity (PAK4 (human)): 95.1%

SMILES: O=C(O)/C=C/c1cc(Br)c(Br)c(Br)c1Br
residual activity (SIK2 (human)): 107%
residual activity (STK17A (human)): 84.6%
residual activity (IKBKE (human)): 96.8%
residual activity (MAP3K2 (human)): 102%
residual activity (MATK (human)): 87.2%
residual activity (CDK4 CCND3 (human)): 97.9%
residual activity (VRK1 (human)): 89.8%
residual activity (RPS6KB1 (human)): 91.4%
residual activity [1]: 110%
residual activity (MARK2 (human)): 82.1%
residual activity (CDC42BPA (human)): 98.5%
residual activity (PRKCH (human)): 83.7%
residual activity (BRSK2 (human)): 91.1%
residual activity (MAPKAPK2 (human)): 91.5%
residual activity (RPS6KA1 KD1 KD2 (human)): 90.5%
residual activity (CDK2 CCNA2 (human)): 85.6%
residual activity (MAP2K1 (human)): 95.8%
residual activity (NEK2 (human)): 92%
residual activity (PHKG2 (human)): 98.9%
residual activity (CAMKK1 (human)): 105%
residual activity (WNK2 (human)): 93%
residual activity (PRKD2 (human)): 71.6%
residual activity (ABL2 (human)): 88.7%
residual activity (CDK4 CCND1 (human)): 89.3%
residual activity (PAK2 (human)): 83.2%
residual activity (AURKA (human)): 77.2%
residual activity (PRKCE (human)): 88.6%
residual activity (ROCK1 (human)): 97.6%
residual activity (STK3 (human)): 91.4%
residual activity (MELK (human)): 91%
residual activity (NTRK3 (human)): 90.6%
residual activity (DDR2 (human)): 94.3%
residual activity (CAMKK2 (human)): 79.6%
residual activity (MKNK2 (human)): 53.8%
residual activity (YES1 (human)): 96.9%
residual activity (MARK1 (human)): 93.7%
residual activity (MAP3K7 TAB1 (human)): 98.4%
residual activity (IKBKB (human)): 95.7%
residual activity (PAK7 (human)): 90.6%
residual activity (AKT1 (human)): 97.4%
residual activity (PAK4 (human)): 104%

SMILES: CN(C)C[C@H]1CCn2c(c(C3=C(c4cn(C)c5ccccc45)C(=O)NC3=O)c3ccccc32)C1
residual activity (SIK2 (human)): 88.8%
residual activity (STK17A (human)): 87.6%
residual activity (IKBKE (human)): 78.8%
residual activity (MAP3K2 (human)): 94.6%
residual activity (MATK (human)): 95%
residual activity (CDK4 CCND3 (human)): 99.7%
residual activity (VRK1 (human)): 105%
residual activity (RPS6KB1 (human)): 20%
residual activity [1]: 104%
residual activity (MARK2 (human)): 94.9%
residual activity (CDC42BPA (human)): 98.1%
residual activity (PRKCH (human)): 7.84%
residual activity (BRSK2 (human)): 102%
residual activity (MAPKAPK2 (human)): 102%
residual activity (RPS6KA1 KD1 KD2 (human)): 5.9%
residual activity (CDK2 CCNA2 (human)): 76.2%
residual activity (MAP2K1 (human)): 98.8%
residual activity (NEK2 (human)): 106%
residual activity (PHKG2 (human)): 104%
residual activity (CAMKK1 (human)): 116%
residual activity (WNK2 (human)): 103%
residual activity (PRKD2 (human)): 97.6%
residual activity (ABL2 (human)): 96.3%
residual activity (CDK4 CCND1 (human)): 86.9%
residual activity (PAK2 (human)): 85.1%
residual activity (AURKA (human)): 87.7%
residual activity (PRKCE (human)): 2.73%
residual activity (ROCK1 (human)): 106%
residual activity (STK3 (human)): 102%
residual activity (MELK (human)): 96.4%
residual activity (NTRK3 (human)): 75%
residual activity (DDR2 (human)): 96%
residual activity (CAMKK2 (human)): 108%
residual activity (MKNK2 (human)): 85.8%
residual activity (YES1 (human)): 95.3%
residual activity (MARK1 (human)): 92.8%
residual activity (MAP3K7 TAB1 (human)): 95.3%
residual activity (IKBKB (human)): 105%
residual activity (PAK7 (human)): 100%
residual activity (AKT1 (human)): 98.7%
residual activity (PAK4 (human)): 104%
